Reference: patent publication US11191732B2, “Glutaminase inhibitor discovery and nanoparticle-enhanced delivery for cancer therapy” (The Johns Hopkins University, priority 2014, dated 2021)

Assays:
[1] = test system: KRAS-mutant human pancreatic cancer cells; assay: Growth of glutamine-addicted pancreatic cancer cells with BPTES; assay type: cell-based; settings: full DMEM media, BPTES dissolved in DMSO
Description: Cells were grown at 37° C. in a 5% (v/v) CO2 and 95% (v/v) air incubator in full DMEM media.

[2] = BPTES levels in pancreatic tumors after intravenous administration (LC-MS/MS); assay type: in vivo, mice; settings: all time points, limit of detection 10 nM
Description: BPTES levels were quantified by LC-MS/MS.
(§1) DMSO solution per dose, as this was is the highest dose that could be administered based on solubility and injection volume limitations.

[3] = test system: glutamine-dependent JHU094 pancreatic patient tumor; assay: JHU094 pancreatic patient tumor growth in vivo; design: species or system mice; settings: nanoparticle 1.2 mg vs free 0.3125 mg in 100 μl, IV
Description: as §1

Metabolic stability = assay type: in vitro ADME; settings: oxidation of the sulfide moiety
Description: In compound 4, the terminal aminothiadiazole ring was replaced with a secondary amide, presenting a new scaffold for GLS inhibitors.

GLS = GLS (Homo sapiens (Human), UniProt O94925); assay: Inhibition of GLS (established radioactive assay); assay type: biochemical
Description: All new synthetic compounds can be tested for their ability to inhibit GLS using an already established radioactive assay.

[4] = test system: resected pancreatic cancer; settings: six cycles adjuvant, cited from earlier work
Panc265 tumor = assay: Panc265 patient-derived orthotopic pancreatic cancer xenograft tumor growth; assay type: in vivo; settings: BPTES nanoparticles 1.2 mg every 3 days IV; gemcitabine 625 μg twice per week IP; 4 weeks
[5] = test system: resected pancreatic cancer; settings: 6 months adjuvant treatment after complete macroscopic resection; cited from earlier work

GLS, sequence (O94925 73-669): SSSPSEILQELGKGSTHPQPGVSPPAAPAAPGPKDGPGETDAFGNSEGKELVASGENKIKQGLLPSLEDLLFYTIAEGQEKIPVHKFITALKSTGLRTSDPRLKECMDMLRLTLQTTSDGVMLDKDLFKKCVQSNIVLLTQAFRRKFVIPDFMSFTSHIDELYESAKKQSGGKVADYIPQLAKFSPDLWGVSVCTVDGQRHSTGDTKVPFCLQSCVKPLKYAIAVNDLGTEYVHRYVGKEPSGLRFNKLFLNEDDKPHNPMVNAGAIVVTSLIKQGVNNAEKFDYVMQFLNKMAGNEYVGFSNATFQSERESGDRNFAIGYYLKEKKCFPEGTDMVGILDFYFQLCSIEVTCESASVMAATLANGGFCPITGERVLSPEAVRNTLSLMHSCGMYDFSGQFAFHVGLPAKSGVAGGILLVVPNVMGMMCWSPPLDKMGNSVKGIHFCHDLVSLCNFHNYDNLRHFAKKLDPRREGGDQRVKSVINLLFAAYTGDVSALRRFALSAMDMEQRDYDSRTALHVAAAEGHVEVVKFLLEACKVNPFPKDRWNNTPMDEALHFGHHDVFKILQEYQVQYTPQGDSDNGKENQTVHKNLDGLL

SMILES: O=C(Cc1ccccc1)Nc1nnc(CCSCCc2nnc(NC(=O)Cc3ccccc3)s2)s1 [BPTES, bis-2-[5-(phenylacetamido)-1,3,4-thiadiazol-2-yl]ethyl sulfide]
- effect on growth of glutamine-addicted pancreatic cancers [1]: inhibitory to their growth
- BPTES level in tumor [2]: < 10 nM
- effect on tumor growth [3]: no statistical benefit

SMILES: Nc1nnc(CCSCCc2nnc(N)s2)s1 [Compound 2]
- metabolic stability (Metabolic stability): metabolically unstable
- IC50 (GLS): 100 µM

SMILES: Nc1nnc(CCCCc2nnc(NC(=O)Cc3ccccc3)s2)s1 [Compound 3]
- IC50 (GLS): 1.9 µM

SMILES: O=C(CCCCc1nnc(NC(=O)Cc2ccccc2)s1)NCCN1CCCC1 [Compound 4]
- IC50 (GLS): 4.6 µM

SMILES: O=C(Cc1ccccc1)Nc1nnc(CCCCc2nnc(NC(=O)Cc3ccc(O)cc3)s2)s1 [Compound 5]
- IC50 (GLS): 0.08 µM

SMILES: O=C(O)CCCCC(=O)Nc1nnc(CCCCc2nnc(NC(=O)Cc3ccccc3)s2)s1 [Compound 6]
- IC50 (GLS): 0.1 µM

SMILES: O=C(O)CCCCCC(=O)Nc1nnc(CCCCc2nnc(NC(=O)Cc3ccccc3)s2)s1 [Compound 7]
- IC50 (GLS): 0.1 µM

SMILES: Nc1ccn([C@@H]2O[C@H](CO)[C@@H](O)C2(F)F)c(=O)n1 [gemcitabine]
- survival rate at 10 years ([4]; observation-alone arm 7.7%): 12.2%
- survival rate at 5 years ([4]; observation-alone arm 10.4%): 20.7%
- reduction in tumor growth (Panc265 tumor): 40-50%
- Median OS [5]: 23.6 months
